Data as given in ChEMBL document CHEMBL4024754, “Development of Potent, Protease-Resistant Agonists of the Parathyroid Hormone Receptor with Broad β Residue Distribution” (J Med Chem, 2017).
pEC50: −log10 of the molar value. Numbered stars: 1 amine (or outer) side, 2 acyl side, 3 side chain; on linkers, the order of the positions; unused ones are H or OH. Square brackets hold non-standard residues; d marks the D form. Peptide text beside a SMILES is read from it. * marks the point of attachment. NH(1S,2S-2-CONH2-cPent) = NC(=O)[C@H]1CCC[C@@H]1N*; β3hW = N[C@H](CC(=O)O)Cc1c[nH]c2ccccc12; ACPC(1S,2S) = N[C@H]1CCC[C@@H]1C(=O)*; X1 = O=C([C@H]1CCC[C@@H]1N[*:1])[*:2]; X2 = O=C([C@H]1CNC[C@@H]1N[*:1])[*:2]; hArg = N=C(N)NCCCC[C@H](N)C(=O)O; β3hE = N[C@@H](CCC(=O)O)CC(=O)O; β3hF = N[C@H](CC(=O)O)Cc1ccccc1; β3hK = NCCCC[C@H](N)CC(=O)O; β3hM = CSCC[C@H](N)CC(=O)O; β3hD = NC(CC(=O)O)CC(=O)O; Aib = CC(C)(N)C(=O)O

Tests used:
[1] = target: T1, Parathyroid hormone/parathyroid hormone-related peptide receptor (Homo sapiens) (UniProt Q03431); assay: Agonist activity at human PTH1 receptor expressed in human GP2.3 cells assessed as induction of cAMP after 12 to 20 mins by luciferase reporter gene assay relative to PTH(1 to 34 residues)-NH2; assay type: functional, cell-based
T1 sequence (whole entry): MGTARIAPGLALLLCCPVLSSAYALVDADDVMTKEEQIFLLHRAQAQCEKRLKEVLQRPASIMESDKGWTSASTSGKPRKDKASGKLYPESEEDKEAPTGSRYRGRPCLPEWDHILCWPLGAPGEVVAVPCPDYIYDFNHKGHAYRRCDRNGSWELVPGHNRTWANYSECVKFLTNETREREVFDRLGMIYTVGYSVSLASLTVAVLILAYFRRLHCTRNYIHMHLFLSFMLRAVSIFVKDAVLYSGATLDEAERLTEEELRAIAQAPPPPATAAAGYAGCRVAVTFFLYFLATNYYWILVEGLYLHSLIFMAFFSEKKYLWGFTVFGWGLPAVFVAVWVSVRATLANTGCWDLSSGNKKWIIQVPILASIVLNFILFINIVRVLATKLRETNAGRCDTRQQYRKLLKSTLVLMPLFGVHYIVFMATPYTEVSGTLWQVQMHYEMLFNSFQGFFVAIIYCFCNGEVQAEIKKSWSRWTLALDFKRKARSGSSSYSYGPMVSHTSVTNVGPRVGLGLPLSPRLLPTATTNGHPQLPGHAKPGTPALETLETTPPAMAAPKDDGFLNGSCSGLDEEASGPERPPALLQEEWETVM

[2] = target: T2, Parathyroid hormone/parathyroid hormone-related peptide receptor (Homo sapiens, UniProt Q03431); assay: Agonist activity at human PTH1 receptor expressed in human GP2.3 cells assessed as induction of cAMP after 12 to 20 mins by luciferase reporter gene assay; assay type: functional, cell-based; conditions: read-out: EC50
T2 sequence (Q03431 whole entry): T1 sequence (whole entry)

CSCC[C@H](NC(=O)[C@H]1CCC[C@@H]1NC(=O)[C@H](CCC(N)=O)NC(=O)[C@H]1CCC[C@@H]1NC(=O)[C@H](CCC(=O)O)NC(=O)[C@H](CO)NC(=O)[C@@H](NC(=O)[C@H]1CCC[C@@H]1N)C(C)C)C(=O)N[C@@H](Cc1cnc[nH]1)C(=O)N[C@@H](CC(N)=O)C(=O)N[C@@H](CC(C)C)C(=O)NCC(=O)N[C@@H](CCCCN)C(=O)N[C@H]1CCC[C@@H]1C(=O)N[C@@H](CC(C)C)C(=O)N[C@@H](CC(N)=O)C(=O)N[C@@H](CO)C(=O)N[C@H]1CCC[C@@H]1C(=O)N[C@@H](CCC(=O)O)C(=O)N[C@@H](CCCNC(=N)N)C(=O)N[C@H](C(=O)N[C@H]1CNC[C@@H]1C(=O)N[C@@H](Cc1c[nH]c2ccccc12)C(=O)N[C@@H](CC(C)C)C(=O)N[C@@H](CCCNC(=N)N)C(=O)N[C@H]1CNC[C@@H]1C(=O)N[C@@H](CCCCN)C(=O)N[C@@H](CC(C)C)C(=O)N[C@@H](CCC(N)=O)C(=O)N[C@H]1CCC[C@@H]1C(=O)N[C@H](C(=O)N[C@@H](Cc1cnc[nH]1)C(=O)N[C@@H](CC(N)=O)C(=O)N[C@H]1CCC[C@@H]1C(N)=O)C(C)C)C(C)C ({ACPC(1S,2S)}-VSE[X1]Q[X1]MHNLGK[X1]LNS[X1]ERV[X2]WLR[X2]KLQ[X1]VHN-{NH(1S,2S-2-CONH2-cPent)})
fold change (FC) [1]: 234

CC[C@H](C)[C@H](NC(=O)[C@H](CCC(=O)O)NC(=O)C(C)(C)NC(=O)[C@@H](NC(=O)[C@H]1CCC[C@@H]1N)C(C)C)C(=O)N[C@@H](CCC(N)=O)C(=O)N[C@H]1CCC[C@@H]1C(=O)N[C@@H](CCSC)C(=O)N[C@@H](Cc1cnc[nH]1)C(=O)N[C@@H](CCC(N)=O)C(=O)N[C@@H](CCCCNC(=N)N)C(=O)N[C@@H](C)C(=O)N[C@@H](CCCCN)C(=O)N[C@@H](Cc1c[nH]c2ccccc12)C(=O)N[C@@H](CC(C)C)C(=O)N[C@@H](CC(N)=O)C(=O)N[C@@H](CO)C(=O)N[C@@H](CCSC)C(=O)N[C@@H](CCCNC(=N)N)C(=O)N[C@@H](CCCNC(=N)N)C(=O)N[C@H](C(=O)N[C@@H](CCC(=O)O)C(=O)N[C@@H](Cc1c[nH]c2ccccc12)C(=O)N[C@@H](CC(C)C)C(=O)N[C@@H](CCCNC(=N)N)C(=O)N[C@@H](CCCCN)C(=O)N[C@@H](CCCCN)C(=O)N[C@@H](CC(C)C)C(=O)N[C@@H](CCC(N)=O)C(=O)N[C@@H](CC(=O)O)C(=O)N[C@H](C(=O)N[C@@H](Cc1cnc[nH]1)C(=O)N[C@@H](CC(N)=O)C(=O)N[C@@H](Cc1ccccc1)C(N)=O)C(C)C)C(C)C ({ACPC(1S,2S)}-V[Aib]EIQ[X1]MHQ[hArg]AKWLNSMRRVEWLRKKLQDVHNF-NH2)
pEC50 [2]: 9.28
fold change (FC) [1]: 6.3

CC[C@H](C)[C@H](NC(=O)[C@H]1CCC[C@@H]1NC(=O)[C@H](C)NC(=O)[C@H](NC(=O)[C@H](CC(C)C)NC(=O)[C@H]1CNC[C@@H]1NC(=O)[C@H](Cc1cnc[nH]1)NC(=O)[C@H](CC(C)C)NC(=O)[C@H](Cc1ccccc1)NC(=O)[C@H]1CNC[C@@H]1NC(=O)[C@H](CCCNC(=N)N)NC(=O)[C@H](CCCNC(=N)N)NC(=O)[C@H](CCCNC(=N)N)NC(=O)[C@H]1CCC[C@@H]1NC(=O)[C@H](CC(=O)O)NC(=O)[C@H](CCC(N)=O)NC(=O)[C@@H](NC(=O)[C@H]1CCC[C@@H]1NC(=O)[C@H](CCCCN)NC(=O)CNC(=O)[C@H](CCCCN)NC(=O)[C@H](CC(=O)O)NC(=O)[C@H](Cc1cnc[nH]1)NC(=O)[C@H](CC(C)C)NC(=O)[C@H](CC(C)C)NC(=O)[C@H](CCC(N)=O)NC(=O)[C@H](Cc1cnc[nH]1)NC(=O)[C@H](CCC(=O)O)NC(=O)[C@H](CO)NC(=O)[C@@H](NC(=O)[C@H](C)N)C(C)C)[C@@H](C)CC)[C@@H](C)CC)C(=O)N[C@@H](Cc1cnc[nH]1)C(=O)N[C@H](C(=O)N[C@H]1CCC[C@@H]1C(N)=O)[C@@H](C)O
fold change (FC) [1]: 9.4

CC[C@H](C)[C@H](NC(=O)[C@H](CCC(=O)O)NC(=O)C(C)(C)NC(=O)[C@@H](NC(=O)[C@H]1CCC[C@@H]1N)C(C)C)C(=O)N[C@@H](CCC(N)=O)C(=O)N[C@H]1CCC[C@@H]1C(=O)N[C@@H](CCSC)C(=O)N[C@@H](Cc1cnc[nH]1)C(=O)N[C@@H](CCC(N)=O)C(=O)N[C@@H](CCCCNC(=N)N)C(=O)N[C@@H](C)C(=O)N[C@@H](CCCCN)C(=O)N[C@H]1CCC[C@@H]1C(=O)N[C@@H](CC(C)C)C(=O)N[C@@H](CC(N)=O)C(=O)N[C@@H](CO)C(=O)N[C@H]1CCC[C@@H]1C(=O)N[C@@H](CCCNC(=N)N)C(=O)N[C@@H](CCCNC(=N)N)C(=O)N[C@H](C(=O)N[C@H]1CNC[C@@H]1C(=O)N[C@@H](Cc1c[nH]c2ccccc12)C(=O)N[C@@H](CC(C)C)C(=O)N[C@@H](CCCNC(=N)N)C(=O)N[C@H]1CNC[C@@H]1C(=O)N[C@@H](CCCCN)C(=O)N[C@@H](CC(C)C)C(=O)N[C@@H](CCC(N)=O)C(=O)N[C@H]1CCC[C@@H]1C(=O)N[C@H](C(=O)N[C@@H](Cc1cnc[nH]1)C(=O)N[C@@H](CC(N)=O)C(=O)N[C@H]1CCC[C@@H]1C(N)=O)C(C)C)C(C)C ({ACPC(1S,2S)}-V[Aib]EIQ[X1]MHQ[hArg]AK[X1]LNS[X1]RRV[X2]WLR[X2]KLQ[X1]VHN-{NH(1S,2S-2-CONH2-cPent)})
pEC50 [2]: 8.74
fold change (FC) [1]: 22

CC[C@H](C)[C@H](NC(=O)[C@H](CCC(=O)O)NC(=O)[C@H](C)NC(=O)[C@@H](NC(=O)[C@H](C)N)C(C)C)C(=O)N[C@@H](CCC(N)=O)C(=O)N[C@@H](CC(C)C)C(=O)N[C@@H](CCSC)C(=O)N[C@@H](Cc1cnc[nH]1)C(=O)N[C@@H](CCC(N)=O)C(=O)N[C@@H](CCCCNC(=N)N)C(=O)N[C@@H](C)C(=O)N[C@@H](CCCCN)C(=O)N[C@H](CC(=O)N[C@@H](CC(C)C)C(=O)N[C@@H](CC(N)=O)C(=O)N[C@@H](CO)C(=O)N[C@@H](CCSC)CC(=O)N[C@@H](CCCNC(=N)N)C(=O)N[C@@H](CCCNC(=N)N)C(=O)N[C@H](C(=O)N[C@@H](CCC(=O)O)CC(=O)N[C@@H](Cc1c[nH]c2ccccc12)C(=O)N[C@@H](CC(C)C)C(=O)N[C@@H](CCCNC(=N)N)C(=O)N[C@@H](CCCCN)CC(=O)N[C@@H](CCCCN)C(=O)N[C@@H](CC(C)C)C(=O)N[C@@H](CCC(N)=O)C(=O)N[C@@H](CC(=O)O)CC(=O)N[C@H](C(=O)N[C@@H](Cc1cnc[nH]1)C(=O)N[C@@H](CC(N)=O)C(=O)N[C@H](CC(N)=O)Cc1ccccc1)C(C)C)C(C)C)Cc1c[nH]c2ccccc12 (H-AVAEIQLMHQ[hArg]AK[β3hW]LNS[β3hM]RRV[β3hE]WLR[β3hK]KLQ[β3hD]VHN[β3hF]-NH2)
pEC50 [2]: 9.36
fold change (FC) [1]: 5.4

CC[C@H](C)[C@H](NC(=O)[C@H]1CCC[C@@H]1NC(=O)[C@H](CCCCN)NC(=O)CNC(=O)[C@H](CCCCN)NC(=O)[C@H](CC(=O)O)NC(=O)[C@H](Cc1cnc[nH]1)NC(=O)[C@H](CC(C)C)NC(=O)[C@H](CC(C)C)NC(=O)[C@H](CCC(N)=O)NC(=O)[C@H](Cc1cnc[nH]1)NC(=O)[C@H](CCC(=O)O)NC(=O)[C@H](CO)NC(=O)[C@@H](NC(=O)[C@H](C)N)C(C)C)C(=O)N[C@@H](CCC(N)=O)C(=O)N[C@@H](CC(=O)O)C(=O)N[C@H]1CCC[C@@H]1C(=O)N[C@@H](CCCNC(=N)N)C(=O)N[C@@H](CCCNC(=N)N)C(=O)N[C@@H](CCCNC(=N)N)C(=O)N[C@H]1CNC[C@@H]1C(=O)N[C@@H](CC(C)C)C(=O)N[C@@H](CC(C)C)C(=O)N[C@@H](CCC(=O)O)C(=O)N[C@H]1CNC[C@@H]1C(=O)N[C@@H](CC(C)C)C(=O)N[C@@H](CC(C)C)C(=O)NC(C)(C)C(=O)N[C@H]1CCC[C@@H]1C(=O)N[C@@H](CC(C)C)C(=O)N[C@@H](Cc1cnc[nH]1)C(=O)N[C@H](C(=O)N[C@H]1CCC[C@@H]1C(N)=O)[C@@H](C)O (H-AVSEHQLLHDKGK[X1]IQD[X1]RRR[X2]LLE[X2]LL[Aib][X1]LHT-{NH(1S,2S-2-CONH2-cPent)})
fold change (FC) [1]: 2.6

CC[C@H](C)[C@H](NC(=O)C[C@H](CO)NC(=O)[C@H](CCCCN)NC(=O)CNC(=O)[C@H](CCCCN)NC(=O)[C@H](CC(=O)O)NC(=O)[C@H](Cc1cnc[nH]1)NC(=O)[C@H](CC(C)C)NC(=O)[C@H](CC(C)C)NC(=O)[C@H](CCC(N)=O)NC(=O)[C@H](Cc1cnc[nH]1)NC(=O)[C@H](CCC(=O)O)NC(=O)[C@H](CO)NC(=O)[C@@H](NC(=O)[C@H](C)N)C(C)C)C(=O)N[C@@H](CCC(N)=O)C(=O)N[C@@H](CC(=O)O)C(=O)N[C@H](CC(=O)N[C@@H](CCCNC(=N)N)C(=O)N[C@@H](CCCNC(=N)N)C(=O)N[C@@H](CCCNC(=N)N)C(=O)N[C@@H](CCC(=O)O)CC(=O)N[C@@H](CC(C)C)C(=O)N[C@@H](CC(C)C)C(=O)N[C@@H](CCC(=O)O)C(=O)N[C@@H](CCCCN)CC(=O)N[C@@H](CC(C)C)C(=O)N[C@@H](CC(C)C)C(=O)NC(C)(C)C(=O)N[C@@H](CCCCN)CC(=O)N[C@@H](CC(C)C)C(=O)N[C@@H](Cc1cnc[nH]1)C(=O)N[C@H](C(=O)N[C@@H](C)CC(N)=O)[C@@H](C)O)CC(C)C
fold change (FC) [1]: 60.4
